The results in this text go back to PMC5734605 (Journal of Medicinal Chemistry, 2017).

The assay addresses TbNMT (Trypanosoma brucei brucei, UniProt Q388H8).

Chain of TbNMT (Q388H8 1-446): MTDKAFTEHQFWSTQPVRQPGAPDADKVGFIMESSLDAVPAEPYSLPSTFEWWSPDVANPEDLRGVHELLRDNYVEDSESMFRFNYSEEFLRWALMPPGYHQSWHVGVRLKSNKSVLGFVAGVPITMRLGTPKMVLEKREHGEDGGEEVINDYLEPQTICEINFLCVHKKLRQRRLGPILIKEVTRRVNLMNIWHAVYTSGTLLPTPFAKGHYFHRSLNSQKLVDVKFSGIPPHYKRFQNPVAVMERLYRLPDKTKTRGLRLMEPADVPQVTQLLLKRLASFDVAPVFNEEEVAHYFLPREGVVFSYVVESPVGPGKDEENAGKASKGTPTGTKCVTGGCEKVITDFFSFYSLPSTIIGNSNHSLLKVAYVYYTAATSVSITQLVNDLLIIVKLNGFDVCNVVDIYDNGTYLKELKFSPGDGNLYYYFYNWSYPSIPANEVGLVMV

“3-((2,6-Dichloro-4-(3-(piperidin-4-yl)propyl)phenoxy)methyl)-2-methylpyridine [Compound 70]”: the “activity against TbNMT (in words)” value is “no in vitro activity”.

In the case of `Cc1nn(C)c(C)c1COc1cccc(-c2cccc(C3CCNCC3)c2)c1` [Compound 17, 4-(3′-((1,3,5-Trimethyl-1H-pyrazol-4-yl)methoxy)-[1,1′-biphenyl]-3-yl)piperidine], the “activity against TbNMT (in words)” value is “completely inactive”.
